{"source": "patent US20230149418A1", "about": "“METHODS AND SYNERGIC COMPOSITIONS FOR TREATING VIRAL INFECTIONS” (HADASIT MEDICAL RESEARCH SERVICES AND DEVELOPMENT LTD., priority 2018, published 2023)", "system": "HCMV TB40/E strain", "assay": "Plaque reduction assay, HCMV TB40/E strain in human foreskin fibroblasts, single drugs and 2-drug combinations (Chou-Talalay)", "format": "cell-based, human cytomegalovirus", "conditions": "for Dose of drug alone at Fa 0.9: Fa 0.9, drug alone; for EC50: Human betaherpesvirus 5, Fibroblast", "method": "The CMV strain used was TB40/E. The CMV strain was propagated and tittered in human foreskin fibroblasts (HFF) cells. Cell-free virus stocks and cell-associated clinical isolates were maintained at -70° C. Viral stocks were tittered by serial 10-fold dilution in 24-well tissue culture plates containing HFF monolayers overlaid with agarose-medium. After incubation for 7 to 14 days, plaques were enumerated, and virus titer was determined as plaque forming units (PFU) per milliliter (ml). Stocks of artemisone (10 mM), ganciclovir (10 mM), BDCRB (120 mM), brincidofovir (1 mM), maribavir (10 mM) and letermovir (10 mM) were prepared in DMSO or H2O.\nCell monolayers were inoculated in 24-well culture plates with 0.2 ml of virus suspension containing 60 to 100 PFU per well. After adsorption for 60 -120 min at 37° C., the inoculum was removed, and culture medium was replaced with agarose-medium overlay containing serial concentrations of the tested drug(s). Plates were incubated for 7-14 days at 37° C. in a 5% CO2 incubator. Plaques were then counted microscopically.\nThe effect of a combination of artemisone with each one of ganciclovir (HCMV DNA polymerase), BDCRB (HCMV terminase inhibitor), brincidofovir (HCMV DNA polymerase inhibitor), maribavir (HCMV UL97 kinase inhibitor) and letermovir (HCMV terminase inhibitor) was evaluated by the classical plaque reduction assay. The in vitro activity of each of the above mentioned antiviral compounds alone or in combination with artemisone was evaluated by the classical plaque reduction assay, using HCMV TB40/E strain in human foreskin fibroblasts cells. The concentration of each antiviral compound that reduced the plaque formation by 50% (EC50) was determined as previously described in Wolf DG et al., J Clin Invest. 1995;95:257-63. The individual EC50 values in human foreskin fibroblasts were as follows: artemisone EC50 - 1 µM; ganciclovir EC50 - 1 µM; maribavir EC50 - 1 µM; BDCRB EC50 - 0.5 µM; letermovir EC50 - 5 nM; brincidofovir EC50 -1 nM.\nFor the 2-drug combination studies, the EC50 value of each drug was used to determine an equipotent ratio between the two compounds (EC50 of drug 1 / EC50 of drug 2). Serial 2-fold dilutions of a mixture comprising artemisone and another antiviral compound at initial concentrations equivalent to 4-fold the equipotent ratio were added to duplicate wells of cells infected with HCMV. Overall, 5 different concentrations of the drug combinations were used: 4xEC50, 2xEC50, 1xEC50,0.5xEC50,0.25xEC50. The cell monolayers were inoculated in 24-well culture plates with 0.2 ml of virus suspension containing 60 to 100 plaque-forming unit (PFU) per well; the Multiplicity of infection (MOI) was 0.001-0.002 PFU/cell).\nD1 and D2 are the doses of the two drugs, and Dx is a dose causing to x% effect (LD0.5 is EC50). Briefly, the software extrapolated a combination index (CI) representing the interaction between the two drugs at specified levels of virus inhibition (that is 50%, 75%, 90%, 95%) versus the percentages of the inhibition induced by each drug alone and in combination (equation 16 in Chou).\nA weighted average CI (CIwt) was then calculated for each combination as (CI50+ 2×CI75+3×CI90+4×CI95)/10, to access the drug combinatory effects.\nThe dose reduction index (DRI) was then calculated as described in Chou. In general, the DRI measures the fold of dose reduction of each drug in the combination at a given effect level compared with the doses of each drug alone. For each one of the below tables: Fa - fraction of virus affected; doses are provided in µm.", "note": "Several values for one entry are separate records, joined by “and”; a condition that tells them apart may be missing. Equal entries are not always repeated. Where two headings read alike, the source gives them in different places."}
{"compound": "CC1CCC2[C@@H](C)[C@H](N3CCS(=O)(=O)CC3)OC3O[C@]4(C)CCC1C32OO4", "note": "(stereo in doubt) [artemisone]", "values": [{"measurement": "Dose of drug alone at Fa 0.75", "setting": "Fa 0.75, drug alone, listed as Art", "value": "2.189 µm and 2.23 µm and 3.071 µm"}, {"measurement": "Dose of drug alone at Fa 0.9", "value": 7.66, "unit": "µm"}, {"measurement": "Dose of drug alone at Fa 0.9", "setting": "listed as Art", "value": "7.658 µm and 7.87 µm and 8.905 µm"}, {"measurement": "Dose of drug alone at Fa 0.95", "setting": "Fa 0.95, drug alone, listed as Art", "value": "17.9447 µm and 18.59 µm and 18.3723 µm"}, {"measurement": "Dose of drug alone at Fa 0.97", "setting": "Fa 0.97, drug alone, listed as Art", "value": "32.8918 µm and 34.26 µm and 30.7567 µm"}, {"measurement": "EC50", "setting": "Fa 0.5, drug alone, read-out: Dose of drug alone at Fa 0.5", "value": 0.626, "unit": "µM"}, {"measurement": "EC50", "setting": "drug alone, human foreskin fibroblasts, read-out: EC50 (concentration that reduced the plaque formation by 50%)", "value": 1, "unit": "µM"}, {"measurement": "DRI (dose reduction index)", "setting": "combination artemisone + brincidofovir, Fa 0.05", "value": 0.16}, {"measurement": "DRI (dose reduction index)", "setting": "combination artemisone + brincidofovir, Fa 0.5", "value": 1.44}, {"measurement": "DRI (dose reduction index)", "setting": "combination artemisone + brincidofovir, Fa 0.75", "value": 3.24}, {"measurement": "DRI (dose reduction index)", "setting": "combination artemisone + brincidofovir, Fa 0.9", "value": "up to 7"}, {"measurement": "DRI (dose reduction index)", "setting": "combination artemisone + brincidofovir, Fa 0.9, listed as Art", "value": 7.28}, {"measurement": "DRI (dose reduction index)", "setting": "combination artemisone + brincidofovir, Fa 0.95", "value": 12.65}, {"measurement": "DRI (dose reduction index)", "setting": "combination artemisone + brincidofovir, Fa 0.97", "value": 18.74}, {"measurement": "DRI (dose reduction index)", "setting": "combination artemisone + cidofovir, Fa 0.05", "value": 0.3256}, {"measurement": "DRI (dose reduction index)", "setting": "combination artemisone + cidofovir, Fa 0.5", "value": 2.047}, {"measurement": "DRI (dose reduction index)", "setting": "combination artemisone + cidofovir, Fa 0.75", "value": 4.066}, {"measurement": "DRI (dose reduction index)", "setting": "combination artemisone + cidofovir, Fa 0.9", "value": 8.07}, {"measurement": "DRI (dose reduction index)", "setting": "combination artemisone + cidofovir, Fa 0.9, listed as Art", "value": 8.075}, {"measurement": "DRI (dose reduction index)", "setting": "combination artemisone + cidofovir, Fa 0.95", "value": 12.8761}, {"measurement": "DRI (dose reduction index)", "setting": "combination artemisone + cidofovir, Fa 0.97", "value": "up to 17.9"}, {"measurement": "DRI (dose reduction index)", "setting": "combination artemisone + cidofovir, Fa 0.97, listed as Art", "value": 17.9464}, {"measurement": "DRI (dose reduction index)", "setting": "combination artemisone + ganciclovir, Fa 0.05", "value": 0.2822}, {"measurement": "DRI (dose reduction index)", "setting": "combination artemisone + ganciclovir, Fa 0.5", "value": 1.792}, {"measurement": "DRI (dose reduction index)", "setting": "combination artemisone + ganciclovir, Fa 0.75", "value": 3.573}, {"measurement": "DRI (dose reduction index)", "setting": "combination artemisone + ganciclovir, Fa 0.9, listed as Art", "value": 7.123}, {"measurement": "DRI (dose reduction index)", "setting": "combination artemisone + ganciclovir, Fa 0.95", "value": 11.39}, {"measurement": "DRI (dose reduction index)", "setting": "combination artemisone + ganciclovir, Fa 0.95, listed as Art", "value": 11.3872}, {"measurement": "DRI (dose reduction index)", "setting": "combination artemisone + ganciclovir, Fa 0.97", "value": 15.9002}, {"measurement": "DRI (dose reduction index)", "setting": "combination artemisone + letermovir, Fa 0.05", "value": 0.2276}, {"measurement": "DRI (dose reduction index)", "setting": "combination artemisone + letermovir, Fa 0.5", "value": 1.624}, {"measurement": "DRI (dose reduction index)", "setting": "combination artemisone + letermovir, Fa 0.75", "value": 3.38}, {"measurement": "DRI (dose reduction index)", "setting": "combination artemisone + letermovir, Fa 0.9", "value": 7.04}, {"measurement": "DRI (dose reduction index)", "setting": "combination artemisone + letermovir, Fa 0.9, listed as Art", "value": 7.037}, {"measurement": "DRI (dose reduction index)", "setting": "combination artemisone + letermovir, Fa 0.95", "value": 11.5866}, {"measurement": "DRI (dose reduction index)", "setting": "combination artemisone + letermovir, Fa 0.97", "value": "up to 16"}, {"measurement": "DRI (dose reduction index)", "setting": "combination artemisone + letermovir, Fa 0.97, listed as Art", "value": 16.5217}, {"measurement": "DRI (dose reduction index)", "setting": "combination artemisone + maribavir, Fa 0.05", "value": 7.032}, {"measurement": "DRI (dose reduction index)", "setting": "combination artemisone + maribavir, Fa 0.5", "value": 15.7458}, {"measurement": "DRI (dose reduction index)", "setting": "combination artemisone + maribavir, Fa 0.75", "value": 21.2706}, {"measurement": "DRI (dose reduction index)", "setting": "combination artemisone + maribavir, Fa 0.9", "value": 28.7}, {"measurement": "DRI (dose reduction index)", "setting": "combination artemisone + maribavir, Fa 0.9, listed as Art", "value": 28.7339}, {"measurement": "DRI (dose reduction index)", "setting": "combination artemisone + maribavir, Fa 0.95", "value": 35.2558}, {"measurement": "DRI (dose reduction index)", "setting": "combination artemisone + maribavir, Fa 0.97", "value": 40.8}, {"measurement": "DRI (dose reduction index)", "setting": "combination artemisone + maribavir, Fa 0.97, listed as Art", "value": 40.7793}]}
